Among the data in patent publication USRE47221E1, “Tricyclic compounds” (AbbVie Inc., priority 2009, dated 2019) are IC50 values, retold here.

Molecules are shown by their SMILES. Some results are limits rather than exact numbers.

T1 sequence (P52333 811-1103): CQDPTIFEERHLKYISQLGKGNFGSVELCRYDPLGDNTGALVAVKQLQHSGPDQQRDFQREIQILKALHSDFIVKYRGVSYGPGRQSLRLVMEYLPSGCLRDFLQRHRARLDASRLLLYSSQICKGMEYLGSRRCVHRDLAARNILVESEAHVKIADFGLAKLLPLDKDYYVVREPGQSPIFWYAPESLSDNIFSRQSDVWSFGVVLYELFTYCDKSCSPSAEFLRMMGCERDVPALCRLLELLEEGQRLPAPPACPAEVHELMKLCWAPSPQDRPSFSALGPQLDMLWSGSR

The test has as its target T1, Jak3 (Homo sapiens, UniProt P52333).
T1 construct: Jak3 enzyme (aa 811-1103); expressed in SF9 cells as a GST fusion; GST; made in house; host or cells: SF9 insect cells
As to the kind of experiment: Jak3 enzyme data for selected compounds. The test is classed as biochemical.
In the case of `O=C(N1CCC(F)(F)CC1)N1CCC[C@@H](c2ncc3cnc4[nH]ccc4n23)C1` [Example #6, (R)-(3-(6H-imidazo[1,5-a]pyrrolo[2,3-e]pyrazin-1-yl)piperidin-1-yl)(4,4-difluoropiperidin-1-yl)methanone], the IC50 (as a rule, the point on the concentration scale where inhibition reaches its midpoint) fell in the range of 100 to 1000 nM.
In turn, `CC[C@@H]1C[C@H](NS(=O)(=O)C2CC2)C[C@@H]1c1nc(CCO)c2cnc3[nH]ccc3n12` [Example #18, N-((1S,3R,4S)-3-ethyl-4-(3-(2-hydroxyethyl)-6H-imidazo[1,5-a]pyrrolo[2,3-e]pyrazin-1-yl)cyclopentyl)cyclopropanesulfonamide] had an IC50 of 100 to 1000 nM.
The value for `O=C(N1CCC[C@@H](c2cnc3cnc4[nH]ccc4n23)C1)N1CCC(F)(F)C1` (single isomer, unassigned) [AA.1.8, (3-(3H-imidazo[1,2-a]pyrrolo[2,3-e]pyrazin-8-yl)piperidin-1-yl)(3,3-difluoropyrrolidin-1-yl)methanone] was less than 100 nM; that for `C[C@H]1CCN(C(=O)N(C)C)C[C@H]1c1ncc2cnc3[nH]ccc3n12` (racemic) [I.2.2] was less than 100 nM; that for `N#Cc1ccc(OCC23C4C5C2C2C3C4C52c2ncc3cnc4[nH]ccc4n23)cc1` (centres unmarked) [D.1.49] was 100 to 1000 nM.
In the case of `O=C(N1CCC(F)(F)CC1)N1CCC[C@@H](c2cnc3cnc4[nH]ccc4n23)C1` (single isomer, unassigned) [AA.1.9, (3-(3H-imidazo[1,2-a]pyrrolo[2,3-e]pyrazin-8-yl)piperidin-1-yl)(4,4-difluoropiperidin-1-yl)methanone], the IC50 lay in the range of 100 to 1000 nM.
With `C[C@@H]1C[C@H](NS(=O)(=O)N2CCC(F)(F)C2)C[C@@H]1c1ncc2cnc3[nH]ccc3n12` [D.1.80], the IC50 is less than 100 nM.
For the compound `CC[C@@H]1C[C@H](NS(=O)(=O)C2CC2)C[C@@H]1c1nc(Br)c2cnc3[nH]ccc3n12` [D.1.45], the IC50 is less than 100 nM.
For the compound `CC[C@@H]1C[C@H](NCCS(=O)(=O)N2CCC(F)(F)C2)C[C@@H]1c1nnc2cnc3[nH]ccc3n12` [D.1.62], the IC50 is greater than 1000 nM.
Consider `CC[C@@H]1C[C@H](NS(=O)(=O)CCN2CCOCC2)C[C@@H]1c1nnc2cnc3[nH]ccc3n12` [D.1.61], for which the IC50 is greater than 1000 nM.
In turn, `C[C@@H]1C[C@H](NS(=O)(=O)NCCO)C[C@@H]1c1cnc2cnc3[nH]ccc3n12` (single isomer, unassigned) [AA.1.81] displayed an IC50 of less than 100 nM.
`CC[C@@H]1C[C@H](OCc2ccc(OC)cc2)C[C@H]1c1nnc2cnc3[nH]ccc3n12` (single isomer, unassigned) [AA.1.32, 1-(2-ethyl-4-(4-methoxybenzyloxy)cyclopentyl)-6H-pyrrolo[2,3-e][1,2,4]triazolo [4,3-a]pyrazine] yielded an IC50 of 100 to 1000 nM.
`C[C@@H]1C[C@H](OCC2CC2)C[C@@H]1c1nnc2cnc3[nH]ccc3n12` [D.1.54] had a concentration for half-maximal inhibition (IC50) greater than 1000 nM.
`N#C[C@H]1CCN(C(=O)N2CCC[C@@H](c3ncc4cnc5[nH]ccc5n34)C2)C1` [AA.1.12, 1-((R)-3-(6H-imidazo[1,5-a]pyrrolo[2,3-e]pyrazin-1-yl)piperidine-1-carbonyl)pyrrolidine-3-carbonitrile] yielded a half-maximal inhibitory concentration (IC50) of less than 100 nM.
`CC1(C)CCN(C(=O)N2CCC[C@@H](c3ncc4cnc5[nH]ccc5n34)C2)CC1` [J.3.10] had an IC50 of less than 100 nM.
For the compound `CC[C@@H]1C[C@H](NS(=O)(=O)CCn2cncn2)C[C@@H]1c1nnc2cnc3[nH]ccc3n12` [YY.1.2], the IC50 is greater than 1000 nM.
Consider `C[C@@H]1CCN(C(=O)N2CCOCC2)C[C@@H]1c1ncc2cnc3[nH]ccc3n12` [I.1.2], for which the half-maximal inhibitory concentration (IC50) is less than 100 nM.
`O=S(=O)(CCC(F)(F)F)N1CCN(c2ncc3cnc4[nH]ccc4n23)CC(F)C1` (centres unmarked) [D.1.65] gave an IC50 greater than 1000 nM.
With `CC[C@@H]1C[C@H](NS(=O)(=O)C2CC2)C[C@@H]1c1nc(CO)c2cnc3[nH]ccc3n12` [Example #17, N-((1S,3R,4S)-3-ethyl-4-(3-(hydroxymethyl)-6H-imidazo[1,5-a]pyrrolo[2,3-e]pyrazin-1-yl)cyclopentyl)cyclopropanesulfonamide] the figure was less than 100 nM; with `O=S(=O)(NC[C@H]1CC[C@@H](c2ncc3cnc4[nH]ccc4n23)C1)C1CC1` (single isomer, unassigned) [AA.1.61], 100 to 1000 nM; with `C[C@@H]1C[C@H](Nc2cccc(C#N)c2)C[C@@H]1c1nnc2cnc3[nH]ccc3n12` [D.2.6], greater than 1000 nM.
The compound `C[C@@H]1CCN(C(=O)N2CCC[C@H]2C#N)C[C@@H]1c1ncc2cnc3[nH]ccc3n12` [J.2.3] came in with a concentration for half-maximal inhibition (IC50) of less than 100 nM.
The compound `CC[C@@H]1C[C@H](NS(=O)(=O)CCC(F)(F)F)CN1c1cnc2cnc3[nH]ccc3n12` [K.4.1] had a concentration for half-maximal inhibition (IC50) of less than 100 nM.
The value for `c1cc2c(ncc3ncn(C4CCCCC4)c32)[nH]1` [Example #21, 1-cyclohexyl-1,6-dihydroimidazo[4,5-d]pyrrolo[2,3-b]pyridine] was 100 to 1000 nM.
`CC1(C)CCN(C(=O)N2CCC[C@@H](c3ncc4cnc5[nH]ccc5n34)C2)C1` [J.3.6] registered an IC50 of 100 to 1000 nM.
With `CC[C@@H]1C[C@H](NS(=O)(=O)C2CC2)C[C@]1(F)c1nnc2cnc3[nH]ccc3n12` (single isomer, unassigned) [AA.1.43, N-(cis-4-ethyl-3-fluoro-3-(6H-pyrrolo[2,3-e][1,2,4]triazolo[4,3-a]pyrazin-1-yl)cyclopentyl)cyclo-propanesulfonamide] the figure was less than 100 nM; with `CC[C@@H]1C[C@H](NS(=O)(=O)N2CC(F)(F)C2)C[C@@H]1c1cnc2cnc3[nH]ccc3n12` (single isomer, unassigned) [AA.1.79, N-(3-ethyl-4-(3H-imidazo[1,2-a]pyrrolo[2,3-e]pyrazin-8-yl)cyclopentyl)-3,3-difluoroazetidine-1-sulfonamide], less than 100 nM; with `CC[C@@H]1C[C@@H](OCCC(F)(F)F)C[C@@H]1c1nnc2cnc3[nH]ccc3n12` (relative stereo) [AA.1.107, 1-(2-ethyl-4-(3,3,3-trifluoropropoxy)cyclopentyl)-6H-pyrrolo[2,3-e][1,2,4]triazolo[4,3-a]pyrazine], less than 100 nM.
For `O=S(=O)(NC[C@H]1CC[C@H](c2ncc3cnc4[nH]ccc4n23)C1)C1CC1` (single isomer, unassigned) [AA.1.60], the concentration for half-maximal inhibition (IC50) fell in the range of 100 to 1000 nM.
The value for `O=C(N1CCCC1)N1CCC[C@@H](c2ncc3cnc4[nH]ccc4n23)C1` [I.3.1] was 100 to 1000 nM; that for `O=C(C1CC(F)(F)C1)N1CCC[C@@H](c2cnc3cnc4[nH]ccc4n23)C1` [Example #3, (R)-(3-(3H-imidazo[1,2-a]pyrrolo[2,3-e]pyrazin-8-yl)piperidin-1-yl)(3,3-difluorocyclobutyl)methanone] was less than 100 nM.
The value for `CC[C@@H]1C[C@@H](Oc2ccc(C#N)cc2)C[C@@H]1c1ncc2cnc3[nH]ccc3n12` [D.2.24] was less than 100 nM; that for `C[C@@H]1CCN(c2ncc(C#N)s2)C[C@@H]1c1ncc2cnc3[nH]ccc3n12` (racemic) [L.1.4] was less than 100 nM; that for `CC[C@@H]1C[C@@H](Oc2ccc(C#N)cn2)C[C@@H]1c1nnc2cnc3[nH]ccc3n12` (racemic) [D.2.22] was 100 to 1000 nM.
In the case of `O=S(=O)(NC12CCC(c3nnc4cnc5[nH]ccc5n34)(CC1)CC2)N1CCC1` [D.1.29], the 50% inhibitory concentration (IC50) is 100 to 1000 nM.
